Measurements reported in ChEMBL document CHEMBL2375303, “Molecular determinants for nuclear receptors selectivity: chemometric analysis, dockings and site-directed mutagenesis of dual peroxisome proliferator-activated receptors α/γ agonists” (Eur J Med Chem, 2013).

Tests used:
Format in all cases: cell-based
[1] = molecular target: T1, Peroxisome proliferator-activated receptor gamma (Homo sapiens, UniProt P37231); assay: Agonist activity at GAL4-fused PPARgamma (unknown origin) expressed in human HepG2 cells by transactivation assay
T1 sequence (P37231 whole entry): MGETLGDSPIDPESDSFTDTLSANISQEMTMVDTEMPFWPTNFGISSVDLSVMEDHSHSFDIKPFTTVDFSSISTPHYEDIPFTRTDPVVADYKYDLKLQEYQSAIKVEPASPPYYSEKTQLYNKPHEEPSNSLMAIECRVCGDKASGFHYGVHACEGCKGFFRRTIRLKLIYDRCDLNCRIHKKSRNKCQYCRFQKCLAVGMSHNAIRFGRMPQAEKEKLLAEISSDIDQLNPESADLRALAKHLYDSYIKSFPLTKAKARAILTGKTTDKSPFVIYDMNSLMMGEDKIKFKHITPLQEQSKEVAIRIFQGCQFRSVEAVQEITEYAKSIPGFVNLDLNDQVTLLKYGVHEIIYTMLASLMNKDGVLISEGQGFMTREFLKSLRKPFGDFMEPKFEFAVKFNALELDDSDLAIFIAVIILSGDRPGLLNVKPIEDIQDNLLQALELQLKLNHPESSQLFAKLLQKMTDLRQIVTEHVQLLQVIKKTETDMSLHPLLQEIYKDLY

[2] = molecular target: T2, Peroxisome proliferator-activated receptor alpha (Homo sapiens, UniProt Q07869); assay: Agonist activity at GAL4-fused PPARalpha (unknown origin) expressed in human HepG2 cells by transactivation assay
T2 sequence (Q07869 whole entry): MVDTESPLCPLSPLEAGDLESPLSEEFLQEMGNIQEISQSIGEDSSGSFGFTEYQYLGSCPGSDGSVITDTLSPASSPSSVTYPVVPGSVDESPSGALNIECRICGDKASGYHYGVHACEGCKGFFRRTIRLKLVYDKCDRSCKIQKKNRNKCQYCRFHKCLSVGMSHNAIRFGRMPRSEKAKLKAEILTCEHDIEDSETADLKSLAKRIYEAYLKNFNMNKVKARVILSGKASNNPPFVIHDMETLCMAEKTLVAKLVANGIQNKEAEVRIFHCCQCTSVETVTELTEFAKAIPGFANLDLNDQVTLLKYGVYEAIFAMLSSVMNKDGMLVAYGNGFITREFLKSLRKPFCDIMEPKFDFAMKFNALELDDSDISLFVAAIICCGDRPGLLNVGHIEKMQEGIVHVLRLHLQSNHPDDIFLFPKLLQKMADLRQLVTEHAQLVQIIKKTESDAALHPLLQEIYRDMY

[3] = molecular target: Peroxisome proliferator-activated receptor alpha (Homo sapiens, UniProt Q07869, A454M); assay: Agonist activity at GAL4-fused PPARalpha A454M mutant (unknown origin) expressed in human HepG2 cells by transactivation assay
[4] = Agonist activity at GAL4-fused PPARgamma M463A mutant (unknown origin) expressed in human HepG2 cells by transactivation assay

Sequence of Peroxisome proliferator-activated receptor alpha (Homo sapiens, UniProt Q07869, A454M) (Q07869 whole entry A454M, the tested form may be a part): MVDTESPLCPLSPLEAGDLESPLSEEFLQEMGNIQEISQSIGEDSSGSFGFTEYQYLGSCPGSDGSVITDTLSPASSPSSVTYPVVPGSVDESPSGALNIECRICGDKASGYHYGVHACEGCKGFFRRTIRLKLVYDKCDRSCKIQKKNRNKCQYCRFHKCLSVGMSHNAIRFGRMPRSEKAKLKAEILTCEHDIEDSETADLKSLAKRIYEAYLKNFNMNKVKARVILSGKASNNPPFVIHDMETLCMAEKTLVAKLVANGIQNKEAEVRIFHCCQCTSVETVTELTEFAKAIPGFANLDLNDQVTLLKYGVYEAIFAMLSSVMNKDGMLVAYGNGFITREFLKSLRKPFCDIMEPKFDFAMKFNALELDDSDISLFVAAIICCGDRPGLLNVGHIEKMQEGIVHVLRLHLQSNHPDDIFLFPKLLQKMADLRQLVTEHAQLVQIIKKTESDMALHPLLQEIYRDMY

SMILES	EC50 ([1]; read-out: pEC50 (converted)) [nM]	EC50 ([2]; read-out: pEC50 (converted)) [nM]	EC50 [3] [nM]	EC50 ([1]; read-out: EC50) [nM]	EC50 ([2]; read-out: EC50) [nM]	EC50 [4] [nM]
O=C(O)[C@H](COc1ccccc1)Oc1ccc(Cl)cc1	1660	2510				
O=C(O)[C@H](CCc1ccccc1)Oc1ccc(Cl)cc1	7080	2400				
O=C(O)[C@H](Cc1ccccc1)Oc1ccc(Oc2ccccc2)cc1	1580	891				
O=C(O)[C@H](CCOc1ccccc1)Oc1ccc(Cl)cc1	1260	3020				
O=C(O)[C@H](Cc1ccccc1)Oc1ccc(Cc2ccccc2)cc1			400	600	40	470
O=C(O)[C@H](Cc1ccc(-c2ccccc2)cc1)Oc1ccc(Cl)cc1	49	1120				
O=C(O)[C@H](Cc1ccc(C(F)(F)F)cc1)Oc1ccc(Cl)cc1	417	3630				
O=C(O)[C@H](CCCc1ccccc1)Oc1ccc(Cl)cc1	912	589				
CN(CCOc1ccc(CC2SC(=O)NC2=O)cc1)c1ccccn1 (stereo unspecified) [ROSIGLITAZONE]						2
O=C(O)[C@H](CCCc1ccc(Cl)cc1)Oc1ccc(Cl)cc1	316	631				
O=C(O)[C@H](Cc1ccccc1)Oc1ccc(-c2ccc(Cl)cc2)cc1	8910	3890				
O=C(O)[C@H](Cc1ccc(-c2cccs2)cc1)Oc1ccc(Cl)cc1	64.6	589				
O=C(O)[C@H](Cc1ccc(Oc2ccccc2)cc1)Oc1ccc(Cl)cc1	26.9	871	900	320	3900	340
